# Test results as given in patent EP4603105A1, “PHARMACEUTICAL COMPOSITION CONTAINING CYCLIC COMPOUND HAVING SELECTIVE KRAS INHIBITORY EFFECT AGAINST HRAS AND NRAS” (CHUGAI SEIYAKU KABUSHIKI KAISHA, priority 2022, dated 2024).
# *1 amine or outer side, *2 acyl side, *3 side chain or, on linkers, in order; H or OH if unused. Where a SMILES comes first, the peptide text is derived from it. Bridges are numbered along the chain shown (N, C = ends). [ ]: non-standard residue; d: D form. The star is where a group is joined. hPhe(3-Cl-4-CF3) = N[C@@H](CCc1ccc(C(F)(F)F)c(Cl)c1)C(=O)O; NPrPhe(4-CF3) = CCCN[C@@H](Cc1ccc(C(F)(F)F)cc1)C(=O)O; NEtPhe(4-Me) = CCN[C@@H](Cc1ccc(C)cc1)C(=O)O; X30 = CCN([C@H](C(=O)[*:2])C1CCCC1)[*:1]; NMeGly(cPent) = CN[C@H](C(=O)O)C1CCCC1; Pro(4S-Me) = C[C@@H]1CN[C@H](C(=O)O)C1; Hyp = O=C(O)[C@@H]1C[C@@H](O)CN1; NMeD = CN[C@@H](CC(=O)O)C(=O)O; NMeL = CN[C@@H](CC(C)C)C(=O)O; Morpholide = C1CN(*)CCO1; NMeA = CN[C@@H](C)C(=O)O; Ac5c = NC1(C(=O)O)CCCC1; Aze = O=C(O)[C@@H]1CCN1; NEtG = CCNCC(=O)O; Sar = CNCC(=O)O
# What was measured:
# [1] = target: GDP-bound NRAS wild-type protein (Homo sapiens, UniProt P01111); assay: Binding to NRAS by surface plasmon resonance (SPR), KD and KD ratio to KRAS
# Sequence of GDP-bound NRAS wild-type protein (P01111 whole entry): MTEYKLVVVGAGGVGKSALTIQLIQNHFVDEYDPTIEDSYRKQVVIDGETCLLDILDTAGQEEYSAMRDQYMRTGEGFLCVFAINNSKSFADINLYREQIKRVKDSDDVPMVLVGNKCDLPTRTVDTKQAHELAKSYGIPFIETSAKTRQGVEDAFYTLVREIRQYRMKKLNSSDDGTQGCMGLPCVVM
# Procedure, shortened: (§1)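 Captured GDP-RAS (~100–300 RU) was exposed to increasing compound concentrations, 75 s per step, in running buffer with 10 µM GDP, 10 mM MgCl2 and 4% DMSO at pH 7.4.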
# [2] = tested on: human lung cancer strain NCI-H441; format: cell-based
# Procedure, shortened: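 Step one: dispense the test compound in serial DMSO dilutions. Step three: add the reagent and measure […].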
# [3] = target: HRAS wild-type protein (Homo sapiens, UniProt P01112); assay: Binding to HRAS by surface plasmon resonance (SPR), KD and KD ratio to KRAS
# Sequence of HRAS wild-type protein (P01112 whole entry): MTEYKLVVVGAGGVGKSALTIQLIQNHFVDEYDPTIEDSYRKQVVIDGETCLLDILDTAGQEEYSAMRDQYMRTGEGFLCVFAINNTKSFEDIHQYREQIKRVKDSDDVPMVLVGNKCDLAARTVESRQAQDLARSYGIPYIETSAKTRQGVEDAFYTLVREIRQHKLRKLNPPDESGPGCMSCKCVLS
# Procedure, shortened: as §1
# [4] = ratio of KD for GDP-bound NRAS wild-type protein to KD for KRAS
# [5] = ratio of KD for HRAS wild-type protein to KD for KRAS
# [6] = ratio of the KD value with respect to GDP-bound NRAS wild-type protein to the KD value with respect to KRAS
# [7] = ratio of the KD value with respect to HRAS wild-type protein to the KD value with respect to KRAS
# [8] = ratio of KD value for GDP-bound NRAS wild-type protein to KD value for KRAS (SPR)
# [9] = ratio of KD value for HRAS wild-type protein to KD value for KRAS (SPR)
SMILES,IC50 [2] [nM],"NRAS /KRAS [1, 4]","HRAS /KRAS [3, 5]","NRAS /KRAS [1, 6]","HRAS /KRAS [3, 7]","NRAS /KRAS [1, 8]","HRAS /KRAS [3, 9]"
CCO[C@@H]1C[C@H]2C(=O)NC3(CCC3)C(=O)N(C)[C@@H](C3CCCC3)C(=O)N(C)[C@H](C(=O)N(C)C)CC(=O)N(C)[C@@H](CC)C(=O)N[C@@H]([C@@H](C)CC)C(=O)N[C@@H](C)C(=O)N(C)[C@H]3C/C=C\CCN(C3=O)[C@@H](Cc3ccc(C(F)(F)F)cc3)C(=O)N(C)CC(=O)N[C@@H](CCc3cc(F)c(C(F)(F)F)c(F)c3)C(=O)N2C1 [PP1065],96.7,A (a compound having 10 or more and less than 20 is denoted as A),B (a compound having 3 or more and less than 10 is denoted as B),–,–,–,–
C#CC[C@H]1C(=O)N[C@@H]([C@@H](C)CC)C(=O)N(C)CC(=O)N(C)[C@H]2C/C=C\CCN(C2=O)[C@@H](Cc2ccc(C(F)(F)F)cc2)C(=O)N(C)CC(=O)N[C@@H](CCc2cc(F)c(C(F)(F)F)c(F)c2)C(=O)N2C[C@H](OCC)C[C@H]2C(=O)NC2(CC(C)(C)C2)C(=O)N(C)[C@@H](C2CCCC2)C(=O)N(C)[C@H](C(=O)N(C)CC)CC(=O)N1C [PP2073],3.5,–,–,A (a compound having 10 or more and less than 20 is denoted as A),A (a compound having 10 or more and less than 20 is denoted as A),–,–
CCCOC[C@H]1C(=O)N[C@@H]([C@@H](C)CC)C(=O)N(C)CC(=O)N(C)[C@H]2C/C=C\CCN(C2=O)[C@@H](Cc2ccc(C(F)(F)F)cc2)C(=O)N(C)CC(=O)N[C@@H](CCc2cc(F)c(C(F)(F)F)c(F)c2)C(=O)N2C[C@H](OCC)C[C@H]2C(=O)NC2(CC(F)(F)C2)C(=O)N(C)[C@@H](C2CCCC2)C(=O)N(C)[C@H](C(=O)N(C)CCC)CC(=O)N1C [PP1744],5.3,–,–,–,–,A (a compound having 10 or more and less than 20 is denoted as A),A (a compound having 10 or more and less than 20 is denoted as A)
CCC[C@H]1C(=O)N[C@@H]([C@@H](C)CC)C(=O)N(C)CC(=O)N(C)[C@H]2C/C=C\CCN(C2=O)[C@@H](Cc2ccc(C(F)(F)F)cc2)C(=O)N(C)CC(=O)N[C@@H](CCc2ccc3ccn(C)c3c2)C(=O)N2C[C@H](OCC)C[C@H]2C(=O)NC2(CC(C)(C)C2)C(=O)N(C)[C@@H](C2CCCC2)C(=O)N(C)[C@H](C(=O)N(C)C)CC(=O)N1C [PP2901],86.5,A (a compound having 10 or more and less than 20 is denoted as A),A (a compound having 10 or more and less than 20 is denoted as A),–,–,–,–
CC[C@H](C)[C@@H]1NC(=O)[C@H](CC(C)C)N(C)C(=O)C[C@@H](C)N(C)C(=O)[C@H](C2CCCC2)N(C)C(=O)C2(CCCC2)NC(=O)[C@@H]2CCCN2C(=O)[C@H](CCc2cc(F)c(C(F)(F)F)c(F)c2)NC(=O)CN(C)C(=O)[C@H](Cc2ccc(C(F)(F)F)cc2)N2CC/C=C\C[C@@H](C2=O)N(C)C(=O)CN(C)C1=O [PP1102],83.1,B (a compound having 3 or more and less than 10 is denoted as B),A (a compound having 10 or more and less than 20 is denoted as A),–,–,–,–
CCC[C@H]1C(=O)N[C@@H]([C@@H](C)CC)C(=O)N(C)CC(=O)N(C)[C@H]2C/C=C\CCN(C2=O)[C@@H](Cc2ccc(C(F)(F)F)cc2)C(=O)N(C)CC(=O)N[C@@H](CCc2cc(F)c(C(F)(F)F)c(F)c2)C(=O)N2C[C@H](OCC)C[C@H]2C(=O)NC2(CCC2)C(=O)N(C)[C@@H](C2CCCC2)C(=O)N(CCC)[C@H](C(=O)N(C)C)CC(=O)N1C [PP1769],12.9,–,–,–,–,A (a compound having 10 or more and less than 20 is denoted as A),A (a compound having 10 or more and less than 20 is denoted as A)
CC[C@H](C)[C@@H]1NC(=O)[C@H](CCOC)N(C)C(=O)C[C@@H](C(=O)N(C)CC)N(C)C(=O)[C@H](C2CCCC2)N(C)C(=O)C2(CC(C)(C)C2)NC(=O)[C@@H]2C[C@H](C)CN2C(=O)[C@H](CCc2cc(F)c(C(F)(F)F)c(F)c2)NC(=O)CN(C)C(=O)[C@H](Cc2ccc(C(F)(F)F)cc2)N2CC/C=C\C[C@@H](C2=O)N(C)C(=O)CN(C)C1=O [PP1972],13.2,–,–,A (a compound having 10 or more and less than 20 is denoted as A),A (a compound having 10 or more and less than 20 is denoted as A),–,–
CC[C@H](C)[C@@H]1NC(=O)[C@H](CC(C)C)N(C)C(=O)C[C@@H](C(=O)N2CCOCC2)N(C)C(=O)[C@H](C2CCCC2)N(C)C(=O)C2(CCCC2)NC(=O)[C@@H]2C[C@@H](O)CN2C(=O)[C@H](CCc2ccc(C(F)(F)F)c(Cl)c2)NC(=O)CN(C)C(=O)[C@H](Cc2ccc(C)cc2)N(CC)C(=O)[C@@H]2CCN2C(=O)[C@H](C)N(C)C1=O [PP0013] ([NMeL]I[NMeA][Aze][NEtPhe(4-Me)][Sar][hPhe(3-Cl-4-CF3)][Hyp][Ac5c][NMeGly(cPent)][NMeD]-Morpholide; lactam N-11),9.8,C (A compound having a KD ratio of 0.1 or more and less than 3 is denoted as C),C (A compound having a KD ratio of 0.1 or more and less than 3 is denoted as C),–,–,–,–

# The next lines start with results.
IC50 [2] [nM],SMILES,"NRAS /KRAS [1, 4]","HRAS /KRAS [3, 5]","NRAS /KRAS [1, 6]","HRAS /KRAS [3, 7]","NRAS /KRAS [1, 8]","HRAS /KRAS [3, 9]"
102,CC[C@H](C)[C@@H]1NC(=O)[C@H](CC(C)C)N(C)C(=O)C[C@@H](C(=O)N2CCOCC2)N(C)C(=O)[C@H](C2CCCC2)N(C)C(=O)C2(CCCC2)NC(=O)[C@@H]2CCCN2C(=O)[C@H](CCc2ccc(C(F)(F)F)c(Cl)c2)NC(=O)CN(C)C(=O)[C@H](C2CCCC2)N(CC)C(=O)CN(C)C(=O)CN(C)C1=O [PP0024] ([NMeL]I[Sar][Sar][X30][Sar][hPhe(3-Cl-4-CF3)]P[Ac5c][NMeGly(cPent)][NMeD]-Morpholide; lactam N-11),B (a compound having 3 or more and less than 10 is denoted as B),C (A compound having a KD ratio of 0.1 or more and less than 3 is denoted as C),–,–,–,–
9.2,CCCN1C(=O)CN(C)C(=O)CNC(=O)[C@H]([C@@H](C)CC)NC(=O)[C@H](CC(C)C)N(C)C(=O)C[C@@H](C(=O)N2CCOCC2)N(C)C(=O)[C@H](C2CCCC2)N(C)C(=O)C2(CCCC2)NC(=O)[C@@H]2C[C@H](C)CN2C(=O)[C@H](CCc2ccc(C(F)(F)F)c(Cl)c2)NC(=O)CN(C)C(=O)[C@@H]1Cc1ccc(C(F)(F)F)cc1 [PP0449] ([NMeL]IG[Sar][NPrPhe(4-CF3)][Sar][hPhe(3-Cl-4-CF3)][Pro(4S-Me)][Ac5c][NMeGly(cPent)][NMeD]-Morpholide; lactam N-11),–,–,C (A compound having a KD ratio of 0.1 or more and less than 3 is denoted as C),C (A compound having a KD ratio of 0.1 or more and less than 3 is denoted as C),–,–
16.7,CC[C@H](C)[C@@H]1NC(=O)[C@H](CC(C)C)N(C)C(=O)C[C@@H](C(=O)N2CCOCC2)N(C)C(=O)[C@H](C2CCCC2)N(C)C(=O)C2(CCCC2)NC(=O)[C@@H]2CCCN2C(=O)[C@H](CCc2ccc(C(F)(F)F)c(Cl)c2)NC(=O)CN(C)C(=O)[C@H](Cc2ccc(OC)cc2)N2CCCC[C@@H](C2=O)N(C)C(=O)CN(C)C1=O [PP0534],–,–,B (a compound having 3 or more and less than 10 is denoted as B),B (a compound having 3 or more and less than 10 is denoted as B),–,–
49.4,CCO[C@@H]1C[C@H]2C(=O)NC3(CCC3)C(=O)N(C)[C@@H](C(CC)CC)C(=O)N(C)[C@H](C(=O)N(C)C)CC(=O)N(C)[C@@H](CC(C)C)C(=O)N[C@@H]([C@@H](C)CC)C(=O)N(C)CC(=O)N(C)[C@H]3C/C=C\CCN(C3=O)[C@@H](Cc3ccc(F)cc3C)C(=O)N(C)CC(=O)N[C@@H](CCc3cc(F)c(C(F)(F)F)c(F)c3)C(=O)N2C1 [PP1518],–,–,–,–,A (a compound having 10 or more and less than 20 is denoted as A),B (a compound having 3 or more and less than 10 is denoted as B)
17.8,CC[C@H](C)[C@@H]1NC(=O)[C@H](C2CC2)N(C)C(=O)C[C@@H](C(=O)N(C)CC)N(C)C(=O)[C@H](C2CCCC2)N(C)C(=O)C2(CCC2)NC(=O)[C@@H]2C[C@H](C)CN2C(=O)[C@H](CCc2cc(F)c(C(F)(F)F)c(F)c2)NC(=O)CN(C)C(=O)[C@H](Cc2ccc(C(F)(F)F)cc2)N2CC/C=C\C[C@@H](C2=O)N(C)C(=O)CN(C)C1=O [PP2080],–,–,A (a compound having 10 or more and less than 20 is denoted as A),A (a compound having 10 or more and less than 20 is denoted as A),–,–
3.3,C#CC[C@H]1C(=O)N[C@@H]([C@@H](C)CC)C(=O)N(C)CC(=O)N(C)[C@H]2CCCCN(C2=O)[C@@H](Cc2ccc(C(F)(F)F)cc2)C(=O)N(C)CC(=O)N[C@@H](CCc2cc(F)c(C(F)(F)F)c(F)c2)C(=O)N2C[C@H](OCC)C[C@H]2C(=O)NC2(CCC2)C(=O)N(C)[C@@H](C2CCCC2)C(=O)N(C)[C@H](C(=O)N(C)C)CC(=O)N1C [PP0696],–,–,B (a compound having 3 or more and less than 10 is denoted as B),B (a compound having 3 or more and less than 10 is denoted as B),–,–
8.8,CCCN1C(=O)CN(C)C(=O)CN(CC)C(=O)[C@H]([C@@H](C)CC)NC(=O)[C@H](CC(C)C)N(C)C(=O)C[C@@H](C(=O)N2CCOCC2)N(C)C(=O)[C@H](C2CCCC2)N(C)C(=O)C2(CCCC2)NC(=O)[C@@H]2CCCN2C(=O)[C@H](CCc2ccc(C(F)(F)F)c(Cl)c2)NC(=O)CN(C)C(=O)[C@@H]1Cc1ccc(C(F)(F)F)cc1 [PP0145] ([NMeL]I[NEtG][Sar][NPrPhe(4-CF3)][Sar][hPhe(3-Cl-4-CF3)]P[Ac5c][NMeGly(cPent)][NMeD]-Morpholide; lactam N-11),B (a compound having 3 or more and less than 10 is denoted as B),B (a compound having 3 or more and less than 10 is denoted as B),–,–,–,–
